Measured values from article PMC2997436 (Journal of medicinal chemistry, 2010).
Like-named read-outs stand apart in the source and are kept apart here.

Experiments:
rat α3β4 nAChR = rat α3β4 nAChR (Rattus norvegicus, UniProt P04757+P12392); type: binding
rat α4β2 nAChR = rat α4β2 nAChR (Rattus norvegicus, UniProt P09483+P12390); type: binding
α3β4 nAChR [1] = target: T1, α3β4 nAChR (Rattus norvegicus, UniProt P04757+P12392); settings: change in both Kd and Bmax of [3H]epibatidine
α3β4 nAChR [2] = target: T1, α3β4 nAChR; type: cell-based
α7 nAChR = α7 nAChR (Rattus norvegicus, UniProt Q05941); experiment: biochemical; type: binding
Chain of α7 nAChR (Q05941 23-502): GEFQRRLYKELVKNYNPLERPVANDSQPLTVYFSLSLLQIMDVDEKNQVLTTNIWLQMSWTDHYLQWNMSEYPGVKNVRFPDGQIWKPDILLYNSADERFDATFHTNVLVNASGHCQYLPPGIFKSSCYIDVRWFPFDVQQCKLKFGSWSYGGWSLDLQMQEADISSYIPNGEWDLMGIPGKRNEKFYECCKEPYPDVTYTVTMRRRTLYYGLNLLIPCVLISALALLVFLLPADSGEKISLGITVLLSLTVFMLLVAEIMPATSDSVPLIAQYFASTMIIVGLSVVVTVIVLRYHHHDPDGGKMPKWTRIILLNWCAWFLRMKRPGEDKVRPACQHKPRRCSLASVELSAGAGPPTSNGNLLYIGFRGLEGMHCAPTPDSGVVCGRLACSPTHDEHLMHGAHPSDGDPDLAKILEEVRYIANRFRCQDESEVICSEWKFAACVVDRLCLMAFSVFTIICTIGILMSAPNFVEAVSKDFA

α4β2 nAChR = α4β2 nAChR (Rattus norvegicus, UniProt P09483+P12390); experiment: Functional assay; type: cell-based
Chain of α4β2 nAChR (P09483 31-630): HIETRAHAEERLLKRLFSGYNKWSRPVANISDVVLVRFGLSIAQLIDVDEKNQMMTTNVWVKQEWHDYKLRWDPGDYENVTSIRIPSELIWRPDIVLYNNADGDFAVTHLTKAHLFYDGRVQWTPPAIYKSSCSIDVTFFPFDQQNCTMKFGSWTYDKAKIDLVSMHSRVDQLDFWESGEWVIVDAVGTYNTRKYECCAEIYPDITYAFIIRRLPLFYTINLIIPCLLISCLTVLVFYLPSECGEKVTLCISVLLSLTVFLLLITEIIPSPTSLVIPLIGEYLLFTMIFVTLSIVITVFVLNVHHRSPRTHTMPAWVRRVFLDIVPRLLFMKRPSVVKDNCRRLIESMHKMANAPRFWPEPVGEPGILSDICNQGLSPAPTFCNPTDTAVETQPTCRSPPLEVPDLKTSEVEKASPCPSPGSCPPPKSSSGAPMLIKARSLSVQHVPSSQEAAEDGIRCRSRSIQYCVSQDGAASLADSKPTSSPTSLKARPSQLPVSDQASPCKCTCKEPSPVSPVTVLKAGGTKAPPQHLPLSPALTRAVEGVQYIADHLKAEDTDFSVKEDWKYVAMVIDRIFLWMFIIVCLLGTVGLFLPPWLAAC
Chain of α4β2 nAChR (P12390 25-500): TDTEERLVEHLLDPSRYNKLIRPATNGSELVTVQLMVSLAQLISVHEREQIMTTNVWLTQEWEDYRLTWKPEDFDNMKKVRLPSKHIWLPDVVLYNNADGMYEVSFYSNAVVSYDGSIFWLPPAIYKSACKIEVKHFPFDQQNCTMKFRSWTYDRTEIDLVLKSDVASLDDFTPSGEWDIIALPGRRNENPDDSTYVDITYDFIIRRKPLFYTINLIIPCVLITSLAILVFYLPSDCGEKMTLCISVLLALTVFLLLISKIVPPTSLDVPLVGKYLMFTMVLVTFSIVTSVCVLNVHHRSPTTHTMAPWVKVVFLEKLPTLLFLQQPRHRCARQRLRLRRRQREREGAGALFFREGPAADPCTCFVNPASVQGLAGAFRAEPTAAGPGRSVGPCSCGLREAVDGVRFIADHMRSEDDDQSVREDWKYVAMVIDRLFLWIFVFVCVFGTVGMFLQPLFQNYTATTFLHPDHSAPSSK

[3] = FLIPR, alone and against epibatidine-induced Ca2+ fluorescence

Chain of rat α4β2 nAChR (P09483 31-630): as the sequence (P09483 31-630) above
Chain of rat α4β2 nAChR (P12390 25-500): as the sequence (P12390 25-500) above
T1 sequence (P12392 22-495): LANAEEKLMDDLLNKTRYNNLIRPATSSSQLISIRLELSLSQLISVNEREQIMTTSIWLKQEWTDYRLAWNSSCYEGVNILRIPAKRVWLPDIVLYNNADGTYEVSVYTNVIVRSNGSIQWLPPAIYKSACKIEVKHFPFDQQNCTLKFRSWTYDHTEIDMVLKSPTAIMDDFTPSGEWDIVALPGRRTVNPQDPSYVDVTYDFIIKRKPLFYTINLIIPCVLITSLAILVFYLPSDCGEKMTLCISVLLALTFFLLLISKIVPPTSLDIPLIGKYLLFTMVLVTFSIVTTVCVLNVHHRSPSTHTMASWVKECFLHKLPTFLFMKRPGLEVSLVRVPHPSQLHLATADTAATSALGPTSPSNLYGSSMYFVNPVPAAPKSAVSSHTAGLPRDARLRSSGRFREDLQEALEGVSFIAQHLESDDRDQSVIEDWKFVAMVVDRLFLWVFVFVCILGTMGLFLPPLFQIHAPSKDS
T1 sequence (P04757 26-499): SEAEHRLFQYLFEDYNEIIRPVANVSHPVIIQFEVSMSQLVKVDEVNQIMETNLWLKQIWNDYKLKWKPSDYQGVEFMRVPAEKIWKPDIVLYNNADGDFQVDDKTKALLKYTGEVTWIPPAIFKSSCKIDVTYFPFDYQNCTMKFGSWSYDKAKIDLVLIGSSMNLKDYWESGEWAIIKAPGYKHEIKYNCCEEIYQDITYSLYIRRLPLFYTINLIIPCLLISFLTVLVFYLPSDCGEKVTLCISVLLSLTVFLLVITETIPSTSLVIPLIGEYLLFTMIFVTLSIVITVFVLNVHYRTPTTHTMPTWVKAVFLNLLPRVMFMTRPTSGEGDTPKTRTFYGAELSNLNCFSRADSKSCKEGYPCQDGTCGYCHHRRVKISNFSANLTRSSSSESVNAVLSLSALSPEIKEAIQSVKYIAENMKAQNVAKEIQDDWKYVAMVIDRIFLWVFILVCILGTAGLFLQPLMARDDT
Chain of rat α3β4 nAChR (P04757 26-499): as above
Chain of rat α3β4 nAChR (P12392 22-495 limits assumed): as the sequence (P12392 22-495) above

For `CCOC(=O)N1C2C=C(c3cccnc3)CC1CCC2` (stereo not drawn) [Compound 7], the “binding affinity at α3β4 nAChR (in words)” value (rat α3β4 nAChR) was “complete loss of binding affinity” and the “binding affinity at α4β2 nAChR (in words)” value (rat α4β2 nAChR) was “complete loss of binding affinity”.
`O=c1cccc2n1C[C@@H]1CNC[C@H]2C1` [Cytisine] was tested, and the “mode of binding with epibatidine at α3β4” value (α3β4 nAChR [1]) was “noncompetitively”.
In the case of `CN1C2C=C(c3cccnc3)CC1CCC2` (stereo not drawn) [Compound 8, 9-methyl-3-(pyridin-3-yl)-9-azabicyclo[3.3.1]non-2-ene], the “functional activity at α3β4 nAChR (in words)” value (α3β4 nAChR [2]; [3]) is reported as “partial agonist activity”.
In the case of `Clc1ccc(C2CC3CCC2N3)cn1` (stereo not drawn) [Epibatidine, reference compound], the “increase in intracellular Ca2+-induced fluorescence” value (α3β4 nAChR [2]) is reported as 1000 fold.
With `O=C1Cc2ccccc2N1C1CC2CC(C1)N(Cc1ccccc1)C2` (stereo not drawn) [Compound 12] the “binding affinity at α4β2 nAChR (in words)” value (rat α4β2 nAChR) was “completely abolished affinity”.
`O=C1Cc2ccccc2N1C1CC2CCCC(C1)N2` (stereo not drawn) [Compound 6] was tested, and the “functional activity at α3β4 nAChR (in words)” value (α3β4 nAChR [2]; [3]) was “antagonists” and the “potency in reversing epibatidine-induced Ca2+ fluorescence” value (α3β4 nAChR [2]; FLIPR, α3β4 HEK cells) was “micromolar range”.
`C1=C(c2cccnc2)CC2CC1CN2Cc1ccccc1` (stereo not drawn) [Compound 10, 6-benzyl-3-(pyridin-3-yl)-6-azabicyclo[3.2.1]oct-2-ene] was tested, and the “functional activity at α3β4 nAChR (in words)” value (α3β4 nAChR [2]) was “partial agonist”, the Ki (rat α3β4 nAChR) was 170 ± 47.9 nM and the Ki (α7 nAChR) was 424 nM. The “selectivity for α4β2 over α3β4 receptors” value (rat α4β2 nAChR) was “about 100 fold”, the “selectivity for α4β2 over α7 nAChR” value (rat α4β2 nAChR) was “greater than 200 fold” and the Ki (rat α4β2 nAChR; binding affinity (Ki) α4β2) was 1.95 ± 0.18 nM. The “functional activity at α4β2 nAChR (in words)” value (α4β2 nAChR) was “partial agonist”.
